In brackets after ≈: the same amount, converted by molar mass. Several values for one entry are separate records, joined by “and”; a condition that tells them apart may be missing. Equal entries are not always repeated.
What was measured:
[1] = tested on: Bacillus sp. TA ATCC 27860; assay: Antimicrobial activity of co-metabolite (M.I.C.); format: cell-based; settings: ATCC27860
Excerpt: (§1) *Minimum inhibitory concentration per ml. in mcg.

[2] = tested on: Escherichia coli ATCC 27856; assay: Antimicrobial activity of co-metabolite (M.I.C.); format: cell-based; settings: ATCC27856
Excerpt: as §1

[3] = tested on: Klebsiella pneumoniae ATCC 27858; assay: Antimicrobial activity of co-metabolite (M.I.C.); format: cell-based; settings: ATCC27858
Excerpt: as §1

[4] = tested on: Paecilomyces varioti ATCC 26820; assay: Antimicrobial activity of co-metabolite (M.I.C.); format: cell-based; settings: ATCC26820
Excerpt: as §1

[5] = tested on: Pseudomonas aeruginosa ATCC 8709; assay: Antimicrobial activity of co-metabolite (M.I.C.); format: cell-based; settings: ATCC8709
Excerpt: as §1

[6] = tested on: Staphylococcus aureus ATCC 6538P; assay: Antimicrobial activity of co-metabolite (M.I.C.); format: cell-based; settings: ATCC6538P
Excerpt: as §1

gram-positive bacteria = assay: Growth of gram-positive bacteria (summary in words); format: cell-based
[7] = Oral toxicity (LD50) in mice; settings: mouse, in vivo
[8] = tested on: Bacillus megaterium ATCC 8011; assay: Antimicrobial activity, agar well diffusion assay; format: cell-based; settings: Priestia megaterium, ATCC8011, lowest twofold dilution giving a zone of inhibition, read-out: Minimum inhibitory concentration
Sarcina lutea ATCC 9341 = assay: Antimicrobial activity, agar well diffusion assay; format: cell-based; settings: Micrococcus luteus, ATCC9341, lowest twofold dilution giving a zone of inhibition, read-out: Minimum inhibitory concentration
[9] = tested on: Bacillus species E ATCC 27859; assay: Antimicrobial activity, agar well diffusion assay; format: cell-based; settings: ATCC27859, lowest twofold dilution giving a zone of inhibition, read-out: Minimum inhibitory concentration
[10] = tested on: Bacillus subtilis NRRL 558; assay: Antimicrobial activity, agar well diffusion assay; format: cell-based; settings: NRRL558, lowest twofold dilution giving a zone of inhibition, read-out: Minimum inhibitory concentration
[11] = tested on: Staphylococcus aureus ATCC 6538P; assay: Antimicrobial activity, agar well diffusion assay; format: cell-based; settings: ATCC6538P, lowest twofold dilution giving a zone of inhibition, read-out: Minimum inhibitory concentration
[12] = tested on: Bacillus species TA ATCC 27860; assay: Antimicrobial activity, agar well diffusion assay; format: cell-based; settings: ATCC27860, lowest twofold dilution giving a zone of inhibition, read-out: Minimum inhibitory concentration
[13] = tested on: Mycobacterium phlei ATCC 355; assay: Antimicrobial activity, agar well diffusion assay; format: cell-based; settings: Mycolicibacterium phlei, ATCC355, lowest twofold dilution giving a zone of inhibition, read-out: Minimum inhibitory concentration
[14] = tested on: Streptomyces cellulosae ATCC 3313; assay: Antimicrobial activity, agar well diffusion assay; format: cell-based; settings: ATCC3313, lowest twofold dilution giving a zone of inhibition, read-out: Minimum inhibitory concentration
[15] = tested on: Paecilomyces varioti ATCC 26820; assay: Antimicrobial activity, agar well diffusion assay; format: cell-based; settings: ATCC26820, lowest twofold dilution giving a zone of inhibition, read-out: Minimum inhibitory concentration
[16] = tested on: volatile fatty acids produced in the rumen; assay: In vitro rumen fermentation, ratio of volatile fatty acids (GLC); design: species or system steer; settings: 4 hrs.; for μmoles C3 /μmoles C2 + μmoles nC4, means / μmoles C3 /μmoles C2 + μmoles nC4, replicate fermentations: 38° C.
Description: Rumen fluid is obtained from a steer with a fistulated rumen. The steer is maintained on the following ration:
The rumen fluid is immediately strained through a #30 mesh sieve. For each fermentation, 75 ml of the resulting fluid is added to a 250 ml flask containing the following:
1 g of 80%:20% finely ground grain: hay ration;
1 ml of an 18% aqueous glucose solution (1 millimole per flask);
1.5 ml of a 3.1% aqueous urea solution (0.76 millimole per flask);
60 micromoles of each of the 10 essential amino acids (arginine, histidine, leucine, methionine, threonine, valine, lysine, isoleucine, phenylalanine,tryptophan);
Carbon dioxide is continuously passed through the hood. […] Three ml of the supernate is added to 1 ml of a 25% metaphosphoric acid solution containing 23 micromoles 2-methyl valeric acid as an internal standard. The resulting fluid is permitted to sit at room temperature for 30 minutes. The fluid is filtered through a […] Millipore filter and refrigerated until gas-liquid chromatographic analyses for volatile fatty acids.

ruminant animals = assay: Efficiency of feed utilization on oral administration; format: in vivo; settings: administered orally
[17] = tested on: DOCA-Na Sprague Dawley (Charles River) male rats; assay: Antihypertensive activity in DOCA-Na hypertensive rats, systolic blood pressure; format: in vivo, rat; settings: 10 MG/KG × 3 days PO; for SYSTOLIC BLOOD PRESSURE, PCT CHANGE: change from pre drug controls
Description: (§2) Antihypertensive activity is tested for in the DOCA-Na Sprague Dawley (Charles River) male rats weighing 170-210 grams. DOCA-Na hypertension is produced by unilateral nephrectomy followed by subcutaneous implantation of a 25 mg. desoxycortico sterone (DOCA) pellet. Animals are placed in individual cages receiving 0.9% sodium chloride solution and rat chow diet ad libitum. Two weeks are allowed to elapse from the time of surgery for development of hypertension, i.e., systolic blood pressure of at least 150 mm. Hg.
(§3) Systolic blood pressure and heart rate are measured indirectly from the tail of unanesthetized rats, using a pneumatic pulse transducer. Control readings are taken prior to drug and at 1, 3, 6 and 24 hours post drug.
(§4) The results are expressed as absolute values and percent changes from controls.

[18] = tested on: DOCA-Na Sprague Dawley (Charles River) male rats; assay: Cardiac rate in DOCA-Na hypertensive rats; format: in vivo, rat; settings: 10 MG/KG × 3 days PO; for CARDIAC RATE, PCT CHANGE: change from pre drug controls; for CARDIAC RATE, individual rats: rats 1-6
Description: as §2, §3, §4

CCC1(OC)C(=O)Nc2ccccc21 (stereo not drawn) [3-ethyl-1,3-dihydro-3-methoxy-2H-indole-2-one]
MIC [1]: 2.5 µg/mL | MIC [2]: 5 µg/mL | MIC [3]: 5 µg/mL | MIC [4]: 2.5 µg/mL | MIC [5]: 5 µg/mL | MIC [6]: 5 µg/mL | effect on growth of gram-positive bacteria (gram-positive bacteria): adversely affecting the growth of certain gram-positive bacteria

CCC(=CC=CC1C=CC2C(CC)CCC2C1C(=O)c1ccc[nH]1)C1OC(C(C)C(=O)O)CCC1C [Antibiotic X-14547, α-(R), 5 (S)-dimethyl-6(R)-{1-ethyl-4-[4-(R)-(2-pyrrolyl-carbonyl)-1(S)-ethyl-3a(R),4,5(R),7a(R)-tetrahydroindan-5-yl]-1(E), 3(E)-butadienyl}tetrahydropyran-2-acetic acid]
LD50 at 24 h [7]: 129 mg/kg | MIC [8]: 0.1 µg/mL (≈ 0.203 µM) | MIC (Sarcina lutea ATCC 9341): 0.1 µg/mL (≈ 0.203 µM) | MIC [9]: 0.2 µg/mL (≈ 0.405 µM) | MIC [10]: 0.1 µg/mL (≈ 0.203 µM) | MIC [11]: 0.2 µg/mL (≈ 0.405 µM) | MIC [12]: 0.2 µg/mL (≈ 0.405 µM) | MIC [13]: 3.1 µg/mL (≈ 6.28 µM) | MIC [14]: 0.8 µg/mL (≈ 1.62 µM) | MIC [15]: 6.3 µg/mL (≈ 12.8 µM) | effect on growth of gram-positive bacteria (gram-positive bacteria): adversely affecting the growth of certain gram-positive bacteria | ratio of propionate (C3) to acetates and n-butyrates ([16]; 10 and 25 ppm, versus controls): significantly improved | μmoles C3 /μmoles C2 + μmoles nC4, means ([16]; 10 ppm): 0.491 | μmoles C3 /μmoles C2 + μmoles nC4, replicate fermentations ([16]; 10 ppm): 0.493 and 0.489 | μmoles C3 /μmoles C2 + μmoles nC4, means ([16]; 25 ppm): 0.521 | μmoles C3 /μmoles C2 + μmoles nC4, replicate fermentations ([16]; 25 ppm): 0.531 and 0.510 | efficiency of feed utilization (ruminant animals): increases the efficiency of feed utilization in ruminant animals | SYSTOLIC BLOOD PRESSURE, MEAN ([17]; day 1): 188.3 mmHg | SYSTOLIC BLOOD PRESSURE, PCT CHANGE ([17]; day 1): -9.0 PCT | SYSTOLIC BLOOD PRESSURE, individual rats ([17]; day 1, rats 1-6): 216 mmHg and 178 mmHg and 184 mmHg and 198 mmHg and 151 mmHg and 203 mmHg | SYSTOLIC BLOOD PRESSURE, MEAN ([17]; day 2, first line): 185.7 mmHg | SYSTOLIC BLOOD PRESSURE, PCT CHANGE ([17]; day 2, first line): -10.3 PCT | SYSTOLIC BLOOD PRESSURE, individual rats ([17]; day 2, first line, rats): 211 mmHg and 201 mmHg and 176 mmHg and 168 mmHg and 190 mmHg | SYSTOLIC BLOOD PRESSURE, MEAN ([17]; day 2, second line): 171.3 mmHg | SYSTOLIC BLOOD PRESSURE, PCT CHANGE ([17]; day 2, second line): -17.1 PCT | SYSTOLIC BLOOD PRESSURE, individual rats ([17]; day 2, second line, rats 1-6): 184 mmHg and 174 mmHg and 161 mmHg and 165 mmHg and 179 mmHg | SYSTOLIC BLOOD PRESSURE, MEAN ([17]; day 3, first line): 205.0 mmHg | SYSTOLIC BLOOD PRESSURE, PCT CHANGE ([17]; day 3, first line): -0.7 PCT | SYSTOLIC BLOOD PRESSURE, individual rats ([17]; day 3, first line, rats 1-6): 214 mmHg and 195 mmHg and 193 mmHg and 219 mmHg and 198 mmHg and 211 mmHg | SYSTOLIC BLOOD PRESSURE, MEAN ([17]; day 3, second line): 196.0 mmHg | SYSTOLIC BLOOD PRESSURE, PCT CHANGE ([17]; day 3, second line): -5.2 PCT | SYSTOLIC BLOOD PRESSURE, individual rats ([17]; day 3, second line, rats 1-6): 210 mmHg and 177 mmHg and 173 mmHg and 206 mmHg and 190 mmHg and 220 mmHg | SYSTOLIC BLOOD PRESSURE, MEAN ([17]; day 4): 202.8 mmHg | SYSTOLIC BLOOD PRESSURE, PCT CHANGE ([17]; day 4): -1.7 PCT | SYSTOLIC BLOOD PRESSURE, individual rats ([17]; day 4, rats 1-6): 197 mmHg and 172 mmHg and 229 mmHg and 212 mmHg and 179 mmHg and 228 mmHg | CARDIAC RATE, MEAN ([18]; day 1): 420.0 BEATS/MIN | CARDIAC RATE, PCT CHANGE ([18]; day 1): 2.0 PCT | CARDIAC RATE, individual rats ([18]; day 1): 480 BEATS/MIN and 360 BEATS/MIN and 450 BEATS/MIN and 440 BEATS/MIN and 390 BEATS/MIN and 400 BEATS/MIN | CARDIAC RATE, MEAN ([18]; day 2, first line): 400.0 BEATS/MIN | CARDIAC RATE, PCT CHANGE ([18]; day 2, first line): -2.6 PCT | CARDIAC RATE, individual rats ([18]; day 2, first line): 430 BEATS/MIN and 320 BEATS/MIN and 360 BEATS/MIN and 490 BEATS/MIN and 370 BEATS/MIN | CARDIAC RATE, MEAN ([18]; day 2, second line): 378.3 BEATS/MIN | CARDIAC RATE, PCT CHANGE ([18]; day 2, second line): -8.1 PCT | CARDIAC RATE, individual rats ([18]; day 2, second line): 420 BEATS/MIN and 310 BEATS/MIN and 400 BEATS/MIN and 380 BEATS/MIN and 450 BEATS/MIN | CARDIAC RATE, MEAN ([18]; day 3, first line): 363.3 BEATS/MIN | CARDIAC RATE, PCT CHANGE ([18]; day 3, first line): -11.3 PCT | CARDIAC RATE, individual rats ([18]; day 3, first line): 380 BEATS/MIN and 360 BEATS/MIN and 370 BEATS/MIN and 350 BEATS/MIN | CARDIAC RATE, MEAN ([18]; day 3, second line): 365.0 BEATS/MIN | CARDIAC RATE, PCT CHANGE ([18]; day 3, second line): -10.8 PCT | CARDIAC RATE, individual rats ([18]; day 3, second line): 370 BEATS/MIN and 360 BEATS/MIN and 350 BEATS/MIN and 380 BEATS/MIN | CARDIAC RATE, MEAN ([18]; day 4): 356.7 BEATS/MIN | CARDIAC RATE, PCT CHANGE ([18]; day 4): -13.1 PCT | CARDIAC RATE, individual rats ([18]; day 4): 370 BEATS/MIN and 320 BEATS/MIN and 360 BEATS/MIN and 350 BEATS/MIN and 340 BEATS/MIN and 400 BEATS/MIN

Reference: patent publication US4181573A, “Process for the production of antibiotic X-14547” (Hoffmann-La Roche Inc., priority 1978, dated 1980)
